# Data from patent US5719145A, “Amidine derivatives and platelet aggregation inhibitor containing the same” (Mitsui Toatsu Chemicals, Inc., priority 1996, dated 1998).
# Structures can show the parent of a compound that is named as a salt.
# How the values were obtained:
# [1] = tested on: guinea pig platelets (platelet-rich plasma); assay: Inhibition against platelet aggregation ability after oral administration in guinea pig; assay type: in vivo; settings: Cavia porcellus, 1 h, oral administration: 37 μmol/kg, blood collected after an hour, ADP 5 μM, read-out: Aggregation inhibiting rate (%)
# Procedure: Experiment for inhibition against platelet aggregation ability after oral administration The specimen drug was dissolved or suspended at a concentration of 18.5 μmol/ml in a physiological saline containing 0.5% of Tween 80. […] A physiological saline containing 0.5% of Tween 80 was similarly administered as a control. […] The blood mixture was centrifuged at 800 r.p.m. for 20 minutes at room temperature to obtain PRP in the upper layer. The lower layer was further centrifuged at 3000 r.p.m. for 15 minutes to obtain PPP in upper layer. […] Platelet aggregation ability was measured according to the method for measuring in vitro platelet aggregation. […] HEMA TRACER 1 (manufactured by NKK Co.). After incubation of PRP at 37° C. for 2 minutes, a physiological saline (30 μl) was added. […] An inhibiting ratio was obtained by comparing the maximum aggregation of the specimen drug group with that of control.
# [2] = tested on: guinea pig platelets (platelet-rich plasma); assay: In vitro inhibition of platelet aggregation in guinea pig (ADP-induced, PRP); assay type: cell-based; settings: Cavia porcellus, ADP final concentration 5 μM, read-out: Platelet aggregation inhibitory activity in guinea pig, IC50
# Procedure: In vitro experiment of platelet aggregation inhibition
# 1. Inhibition of platelet aggregation in Guinea pig
# Blood of male guinea pig was collected with an injection syringe which contains 3.8 % sodium citrate as an anticoagulant in a ratio of 1 volume to 9 volumes of the blood. Successively, the collected blood mixture was subjected to centrifugation at 120×g for 15 minutes at room temperature to obtain platelet-rich plasma (PRP). An aliquot of PRP was further subjected to centrifugation at 1,200×g for 15 minutes to obtain platelet-poor plasma (PPP). Numbers of the platelet in PRP were measured with an automatic platelet counter: Sysmex PL-100 (manufactured by Toa Iyodenshi Co.) and PRP was diluted with PPP so as to adjust a platelet concentration to be about 300,000 particles/ μl. Platelet aggregation was measured by the following procedure with a 6 channel aggregometer: HEMA TRACER 1 (manufactured by NKK Co.).
# After incubation of 240 μl of PRP at 37° C. for 2 minutes, 30 μl of the solvent of specimen as a control or of the specimen in various concentrations was added to PRP. Further 2 minutes later, 30 μl of adenosine diphosphate (final concentration: 5μM) was added to induce platelet aggregation. An inhibition percentage was obtained by comparing the maximum aggregation of the specimen drug group with that of control. […]
structure (smiles),measurement,setting,value
"C#CCNC(=N)c1ccc(C(=O)Nc2ccc3c(c2)CC(CC(=O)OCC)CC3)cc1 (single isomer, unassigned) [Example 45, ethyl (-)-7-[[4-(N^2-propargylamidino)benzoyl]amino]-1,2,3,4-tetrahydronaphthalene-2-acetate hydrochloride]",inhibition at 37 µmol/kg,[1],> 90%
"CCOC(=O)CC1CCc2ccc(NC(=O)c3ccc(C(=N)N4CCOCC4)cc3)cc2C1 (single isomer, unassigned) [Example 47, ethyl (-)-7-[[4-(morpholinoiminomethyl)benzoyl]amino]-1,2,3,4-tetrahydronaphthalene-2-acetate hydrochloride]",inhibition at 37 µmol/kg,[1],> 90%
"C#CCNC(=N)c1ccc(C(=O)Nc2ccc3c(c2)CC(CC(=O)OCC)CO3)cc1 (single isomer, unassigned) [Example 49, ethyl (-)-6-[[4-(N^2-propargylamidino)benzoyl]amino]chroman-3-acetate hydrochloride]",inhibition at 37 µmol/kg,[1],> 90%
"CCOC(=O)CC1COc2ccc(NC(=O)c3ccc(C(=N)N4CCOCC4)cc3)cc2C1 (single isomer, unassigned) [Example 51, hydrochloride]",inhibition at 37 µmol/kg,[1],> 90%
"CCOC(=O)CC1CCc2ccc(NC(=O)c3ccc(C(=N)N4CCOCC4)cc3)cc2C1 (centres unmarked) [Example 1, ethyl 7-[[4-(morpholinoiminomethyl)benzoyl]amino]-1,2,3,4-tetrahydronaphthalene-2-acetate hydrochloride]",inhibition at 37 µmol/kg,[1],> 90%
same,IC50,[2],180 nM
"CCOC(=O)CC1COc2ccc(NC(=O)c3ccc(C(=N)N4CCOCC4)cc3)cc2C1 (centres unmarked) [Example 4, ethyl 6-[[4-(morpholinoiminomethyl)benzoyl]amino]chroman-3-acetate hydrochloride]",inhibition at 37 µmol/kg,[1],> 90%
same,IC50,[2],120 nM
"CCOC(=O)CC1COc2cc(NC(=O)c3ccc(C(=N)N4CCOCC4)cc3)ccc2C1 (centres unmarked) [Example 8, ethyl 7-[[4-(morpholinoiminomethyl)benzoyl]amino]chroman-3-acetate hydrochloride]",inhibition at 37 µmol/kg,[1],> 90%
"CCOC(=O)CC1CCc2ccc(NC(=O)c3ccc(C(=N)N4CCSCC4)cc3)cc2C1 (centres unmarked) [Example 12, ethyl 7-[[4-(thiomorpholinoiminomethyl)benzoyl]amino]-1,2,3,4-tetrahydronaphthalene-2-acetate hydrochloride]",inhibition at 37 µmol/kg,[1],> 90%
"CCOC(=O)CC1CCc2ccc(NC(=O)c3ccc(C(=N)N4CCN(C)CC4)cc3)cc2C1 (centres unmarked) [Example 14, ethyl 7-[[4-(4-methylpiperazinoiminomethyl)benzoyl]amino]-1,2,3,4-tetrahydronaphthalene-2-acetate dihydrochloride]",inhibition at 37 µmol/kg,[1],> 90%
same,IC50,[2],66 nM
"CCOC(=O)CC1CCc2ccc(NC(=O)c3ccc(C(=N)N4CCCCC4)cc3)cc2C1 (centres unmarked) [Example 17, ethyl 7-[[4-(piperidinoiminomethyl)benzoyl]amino]-1,2,3,4-tetrahydronaphthalene-2-acetate hydrochloride]",inhibition at 37 µmol/kg,[1],> 90%
same,IC50,[2],270 nM
"CCOC(=O)CC1CCc2ccc(NC(=O)c3ccc(C(=N)N4CCCC4)cc3)cc2C1 (centres unmarked) [Example 21, ethyl 7-[[4-(pyrrolidinoiminomethyl)benzoyl]amino]-1,2,3,4-tetrahydronaphthalene-2-acetate hydrochloride]",inhibition at 37 µmol/kg,[1],> 90%
same,IC50,[2],94 nM
"CCOC(=O)CC1CCc2ccc(NC(=O)c3ccc(C(=N)N4CCCCCC4)cc3)cc2C1 (centres unmarked) [Example 22, ethyl 7-[[4-(homopiperidinoiminomethyl)benzoyl]amino]-1,2,3,4-tetrahydronaphthalene-2-acetate hydrochloride]",inhibition at 37 µmol/kg,[1],> 90%
same,IC50,[2],250 nM
"C#CCN=C(N)c1ccc(C(=O)Nc2ccc3c(c2)CC(CC(=O)OCC)CC3)cc1 (centres unmarked) [Example 24, ethyl 7-[[4-(N^2-propargylamidino)benzoyl]amino]-1,2,3,4-tetrahydronaphthalene-2-acetate]",inhibition at 37 µmol/kg,[1],> 90%
"C#CCNC(=N)c1ccc(C(=O)Nc2ccc3c(c2)CC(CC(=O)OCC)CO3)cc1 (centres unmarked) [Example 26, ethyl 6-[[4-(N^2-propargylamidino)benzoyl]amino]chroman-3-acetate hydrochloride]",inhibition at 37 µmol/kg,[1],> 90%
same,IC50,[2],190 nM
"CCOC(=O)CC1CCc2ccc(NC(=O)c3ccc(C(=N)NCc4ccco4)cc3)cc2C1 (centres unmarked) [Example 29, ethyl 7-[[4-[N^2-(2-furfuryl)amidino]benzoyl]amino]-1,2,3,4-tetrahydronaphthalene-2-acetate hydrochloride]",inhibition at 37 µmol/kg,[1],> 90%
"CCOC(=O)CC1COc2ccc(NC(=O)c3ccc(C(=N)NCc4ccco4)cc3)cc2C1 (centres unmarked) [Example 31, ethyl 6-[[4-[N^2-(2-furfuryl)amidino]benzoyl]amino]chroman-3-acetate hydrochloride]",inhibition at 37 µmol/kg,[1],> 90%
same,IC50,[2],140 nM
"C#CCN(C)C(=N)c1ccc(C(=O)Nc2ccc3c(c2)CC(CC(=O)OCC)CC3)cc1 (centres unmarked) [Example 34, ethyl 7-[[4-(N^1-methyl-N^2-propargylamidino)benzoyl]amino]-1,2,3,4-tetrahydronaphthalene-2-acetate hydrochloride]",inhibition at 37 µmol/kg,[1],> 90%
"CCOC(=O)CC1CCc2ccc(NC(=O)c3ccc(C(=N)NCc4ccccn4)cc3)cc2C1 (centres unmarked) [Example 38, ethyl 7-[[4-[N^2-(2-picolyl)amidino]benzoyl]amino]-1,2,3,4-tetrahydronaphthalene-2-acetatedihydrochloride]",inhibition at 37 µmol/kg,[1],> 90%
"N=C(NCc1ccccn1)c1ccc(C(=O)Nc2ccc3c(c2)CC(CC(=O)O)CC3)cc1 (centres unmarked) [Example 39, 7-[[4-[N^2-(2-picolyl)amidino]benzoyl]amino]-1,2,3,4-tetrahydronaphthalene-2-acetic acid dihydrochloride]",IC50,[2],140 nM
"CCOC(=O)CC1CCc2ccc(NC(=O)c3ccc(C(=N)NCc4ccncc4)cc3)cc2C1 (centres unmarked) [Example 41, ethyl 7-[[4-[N^2-(4-picolyl)amidino]benzoyl]amino]-1,2,3,4-tetrahydronaphthalene-2-acetatedihydrochloride]",IC50,[2],120 nM
"CCOC(=O)CC1CCc2ccc(NC(=O)c3ccc(C(=N)NCCc4ccncc4)cc3)cc2C1 (centres unmarked) [Example 42, ethyl 7-[[4-[N^2-[2-(4-pyridyl)ethyl]amidino]benzoyl]amino]-1,2,3,4-tetrahydronaphthalene-2-acetate dihydrochloride]",IC50,[2],130 nM
"CCOC(=O)CC1CCc2ccc(NC(=O)c3ccc(C(=N)N4CCN(c5ccccc5)CC4)cc3)cc2C1 (centres unmarked) [Example 43, dihydrochloride]",IC50,[2],140 nM
"CCOC(=O)CC1CCc2ccc(NC(=O)c3ccc(C(=N)N4CCN(c5ccccn5)CC4)cc3)cc2C1 (centres unmarked) [Example 44, trihydrochloride]",IC50,[2],88 nM
"N=C(N)c1ccc(C(=O)Nc2ccc3c(c2)CC(CC(=O)O)CC3)cc1 (centres unmarked) [Ref. Example 2, 7-[(4-amidinobenzoyl)amino]-1,2,3,4-tetrahydronaphthalene-2-acetic acid hydrochloride, reference compound]",IC50,[2],370 nM
"N=C(N)c1ccc(C(=O)Nc2ccc3c(c2)CN(CC(=O)O)CC3)cc1 [Ref. Example 6, 7-[(4-amidinobenzoyl)amino]-1,2,3,4-tetrahydroisoquinoline-2-acetic acid dihydrochloride, reference compound]",IC50,[2],6600 nM
"CCOC(=O)CC1CCc2ccc(NC(=O)c3ccc(C(=N)N)cc3)cc2C1 (centres unmarked) [Reference Example 1, ethyl 7-[(4-amidinobenzoyl)amino]-1,2,3,4-tetrahydronaphthalene-2-acetate hydrochloride, reference compound]",inhibition at 37 µmol/kg,[1],41%
"CCOC(=O)CC1COc2ccc(NC(=O)c3ccc(C(=N)N)cc3)cc2C1 (centres unmarked) [Reference Example 3, ethyl 6-[(4-amidinobenzoyl)amino]chroman-3-acetate hydrochloride, reference compound]",inhibition at 37 µmol/kg,[1],39%
"CCOC(=O)CC1COc2cc(NC(=O)c3ccc(C(=N)N)cc3)ccc2C1 (centres unmarked) [Reference Example 7, ethyl 7-[(4-amidinobenzoyl)amino]chroman-3-acetate hydrochloride, reference compound]",inhibition at 37 µmol/kg,[1],24%
"CCCCOC(=O)N=C(N)c1ccc(C(=O)Nc2ccc3c(c2)CC(CC(=O)OCC)CC3)cc1 (centres unmarked) [Reference Example 10, ethyl 7-[[4-[N^1-(n-butoxycarbonyl)amidino]benzoyl]amino]-1,2,3,4-tetrahydronaphthalene-2-acetate, reference compound]",inhibition at 37 µmol/kg,[1],59%
"CCOC(=O)CN1CCc2ccc(NC(=O)c3ccc(C(=N)N)cc3)cc2C1 [Reference example 5, ethyl 7-[(4-amidinobenzoyl)amino]-1,2,3,4-tetrahydroisoquinoline-2-acetate dihydrochloride, reference compound]",inhibition at 37 µmol/kg,[1],10%
